Earlier results as cited in patent publication US20240124428A1, “HETEROCYCLIC INHIBITORS OF PCSK9” (CARDIO THERAPEUTICS PTY LTD, priority 2020, published 2024).
Marks after values point to notes of the source that are not given here.

What was measured:
[1] = target: T1, binding between PCSK9 and the LDL receptor (Homo sapiens, UniProt Q8NBP7); settings: comparator; data from Evison et al. 2020; read-out: PCSK9-LDLR binding assay IC50; cited from earlier work
T1 construct: purchased CircuLex

[2] = tested on: HepG2 cells; settings: data from Evison et al. 2020; read-out: HepG2 cytotoxicity IC50; cited from earlier work
[3] = data from Evison et al. 2020; conditions not given; cited from earlier work
[4] = target: T2, CYP3A4 (Homo sapiens, UniProt P08684); settings: data from Evison et al. 2020; cited from earlier work
T2 construct: using human liver microsomes; from tissue; host or cells: human liver microsomes

[5] = target: T3, hERG channel (Homo sapiens, UniProt Q12809); settings: data from Evison et al. 2020; cited from earlier work
T3 construct: expressed in transfected cells; host or cells: CHO

[6] = target: T4, CYP2D6 (Homo sapiens, UniProt P10635); settings: data from Evison et al. 2020; cited from earlier work
T4 construct: using human liver microsomes; from tissue; host or cells: human liver microsomes
T4 sequence (P10635 whole entry): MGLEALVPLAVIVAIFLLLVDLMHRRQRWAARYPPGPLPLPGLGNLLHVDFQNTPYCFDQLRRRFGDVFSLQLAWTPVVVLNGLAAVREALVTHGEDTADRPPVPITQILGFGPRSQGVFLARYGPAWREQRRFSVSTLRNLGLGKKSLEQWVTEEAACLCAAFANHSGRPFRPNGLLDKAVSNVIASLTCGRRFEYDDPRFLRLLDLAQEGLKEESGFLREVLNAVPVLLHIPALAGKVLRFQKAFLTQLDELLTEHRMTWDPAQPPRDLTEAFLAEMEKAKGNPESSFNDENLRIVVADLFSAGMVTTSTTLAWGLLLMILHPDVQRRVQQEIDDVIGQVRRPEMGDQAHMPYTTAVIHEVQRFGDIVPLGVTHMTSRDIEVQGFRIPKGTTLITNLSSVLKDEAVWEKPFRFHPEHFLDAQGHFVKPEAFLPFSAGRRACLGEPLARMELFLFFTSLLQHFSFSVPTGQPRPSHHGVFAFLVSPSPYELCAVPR

T1 sequence (Q8NBP7 153-692): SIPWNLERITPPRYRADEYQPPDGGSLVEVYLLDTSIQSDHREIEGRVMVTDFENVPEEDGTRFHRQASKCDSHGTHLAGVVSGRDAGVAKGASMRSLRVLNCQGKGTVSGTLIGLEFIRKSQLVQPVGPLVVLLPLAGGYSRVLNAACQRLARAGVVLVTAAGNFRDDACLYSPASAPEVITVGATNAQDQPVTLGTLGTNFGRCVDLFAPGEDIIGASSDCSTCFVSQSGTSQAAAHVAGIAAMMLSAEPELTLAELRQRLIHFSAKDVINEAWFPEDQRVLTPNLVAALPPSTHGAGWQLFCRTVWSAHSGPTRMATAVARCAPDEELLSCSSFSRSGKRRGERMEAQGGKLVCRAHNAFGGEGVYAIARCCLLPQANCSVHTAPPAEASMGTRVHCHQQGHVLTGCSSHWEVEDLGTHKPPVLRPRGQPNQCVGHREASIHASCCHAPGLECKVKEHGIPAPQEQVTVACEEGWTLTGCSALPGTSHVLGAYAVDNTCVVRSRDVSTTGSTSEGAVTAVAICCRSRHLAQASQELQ
T1 sequence (Q8NBP7 31-152 partner limits assumed): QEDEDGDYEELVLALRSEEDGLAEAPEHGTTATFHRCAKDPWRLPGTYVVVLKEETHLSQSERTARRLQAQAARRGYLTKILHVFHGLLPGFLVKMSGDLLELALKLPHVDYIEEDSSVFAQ
T3 sequence (Q12809 whole entry): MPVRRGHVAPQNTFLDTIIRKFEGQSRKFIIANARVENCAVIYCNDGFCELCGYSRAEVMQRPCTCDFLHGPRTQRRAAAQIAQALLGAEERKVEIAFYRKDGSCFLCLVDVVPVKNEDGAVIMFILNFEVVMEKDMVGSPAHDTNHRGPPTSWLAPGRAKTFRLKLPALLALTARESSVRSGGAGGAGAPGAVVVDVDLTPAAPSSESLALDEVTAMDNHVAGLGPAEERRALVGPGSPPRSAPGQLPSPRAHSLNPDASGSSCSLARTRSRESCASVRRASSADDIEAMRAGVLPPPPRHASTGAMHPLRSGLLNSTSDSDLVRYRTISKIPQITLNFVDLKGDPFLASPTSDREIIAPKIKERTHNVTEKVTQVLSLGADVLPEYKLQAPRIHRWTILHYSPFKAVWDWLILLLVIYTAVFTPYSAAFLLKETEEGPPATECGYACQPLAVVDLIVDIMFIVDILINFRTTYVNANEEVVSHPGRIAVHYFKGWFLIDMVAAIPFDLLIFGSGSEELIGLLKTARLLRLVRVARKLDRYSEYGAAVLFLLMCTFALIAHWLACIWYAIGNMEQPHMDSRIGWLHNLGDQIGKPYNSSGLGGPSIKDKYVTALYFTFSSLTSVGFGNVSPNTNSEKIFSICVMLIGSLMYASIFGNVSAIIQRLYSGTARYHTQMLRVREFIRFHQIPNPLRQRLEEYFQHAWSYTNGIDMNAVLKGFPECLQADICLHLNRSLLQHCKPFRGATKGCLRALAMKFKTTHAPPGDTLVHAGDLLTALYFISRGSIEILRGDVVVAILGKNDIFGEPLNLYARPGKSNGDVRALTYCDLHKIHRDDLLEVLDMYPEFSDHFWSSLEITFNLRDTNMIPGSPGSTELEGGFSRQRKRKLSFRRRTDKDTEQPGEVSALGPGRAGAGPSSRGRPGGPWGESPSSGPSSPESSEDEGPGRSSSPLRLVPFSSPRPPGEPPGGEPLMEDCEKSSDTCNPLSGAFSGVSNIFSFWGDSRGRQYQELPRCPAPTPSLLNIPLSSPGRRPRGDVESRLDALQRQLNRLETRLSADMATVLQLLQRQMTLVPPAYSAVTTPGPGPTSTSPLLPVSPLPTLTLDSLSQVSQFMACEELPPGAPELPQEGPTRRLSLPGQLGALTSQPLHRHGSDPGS
T2 sequence (P08684 whole entry): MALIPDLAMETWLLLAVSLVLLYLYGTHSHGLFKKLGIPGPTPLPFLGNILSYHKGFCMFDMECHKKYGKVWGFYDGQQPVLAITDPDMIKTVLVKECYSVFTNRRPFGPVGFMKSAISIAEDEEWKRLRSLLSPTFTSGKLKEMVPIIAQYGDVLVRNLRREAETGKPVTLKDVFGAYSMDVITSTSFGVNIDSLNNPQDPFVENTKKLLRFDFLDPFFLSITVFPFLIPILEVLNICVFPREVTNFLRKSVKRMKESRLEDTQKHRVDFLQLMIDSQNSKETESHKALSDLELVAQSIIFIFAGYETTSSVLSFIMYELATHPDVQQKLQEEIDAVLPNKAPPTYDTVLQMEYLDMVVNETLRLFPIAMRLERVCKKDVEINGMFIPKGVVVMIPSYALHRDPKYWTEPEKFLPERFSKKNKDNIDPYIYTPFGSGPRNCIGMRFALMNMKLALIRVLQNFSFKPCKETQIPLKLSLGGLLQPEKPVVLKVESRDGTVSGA

SMILES: Cc1cn(-c2cc(CN3CCC[C@H](N)C3)cc(NC(=O)c3ccc(C)c(Oc4ccccc4)c3)c2)cn1 [3f]
- IC50 [1]: 0.939 µM
- IC50 [2]: 5.23 µM
- AUClast (h*ng/ml) [3]: 92.3** h*ng/ml
- Bioavailability (%) [3]: 0.5** %
- CMax (ng/ml) [3]: 52.5** ng/ml
- VSS (L/kg) [3]: 3.87** L/kg
- CYP3A4 (% inhibition at 10 μM) [4]: 95.0%
- IC50 [5]: 19 µM
- CYP2D6 (% inhibition at 10 μM) [6]: 82.2%
